How the values were obtained:
[1] = test system: DU-145 (prostate cancer) cells; assay: Confocal / fluorescence lifetime microscopy of doxorubicin uptake from rHDL-Doxorubicin nanoparticles; assay type: cell-based
Procedure: The data presented in FIGS. 11-12 were obtained via fluorescence lifetime microscopy via the following protocols. Apo A-I was labeled with Alexa Fluor 647 (Fluorescent dye Excitation: 650 nm; Emission:665 nm), using Alexa Fluor™ 647 Antibody Labeling Kit (by Thermo Fisher) according to the manufacturer's protocol. The rHDL-Doxorubicin nanoparticles were prepared with the Alexa Fluor 647 labeled Apo A-I, using the cholate dialysis protocol. The DU-145 (prostate cancer) cells were treated with the rHDL-Doxorubicin nanoparticles at 37° C./5% CO2 and observed under confocal microscopy for uptake of doxorubicin. In order to inhibit the uptake, […] antibody was used to block the receptor activity.
For imaging, the cells were plated on custom glass bottom petri dishes. Before imaging, the cells were washed with PBS, and doped with several concentrations of free or rHDL-doxorubicin formulations. For SR-B1 receptor blocking, the DU-145 cells were incubated with antibodies for SR-B1 receptor for 30 minutes at 5% CO2 and 37° C. The cells were excited with a 470 nm diode at 70% power, and the emission imaged at 600 nm. […] For dual label experiments, the samples were excited at 470 nm and 630 nm, with a 520 nm long pass filter on channel 1 to observe DOX fluorescence, and a 647 nm long pass on filter on channel 2 to observe […] emission. […]

[2] = test system: cancer cells; conditions: encapsulated by HDL delivery particles; HDL receptor mediated mechanism (Lacko et al., 2002); cited from earlier work

In the case of COc1cccc2c1C(=O)c1c(O)c3c(c(O)c1C2=O)C[C@@](O)(C(=O)CO)C[C@@H]3O[C@H]1C[C@H](N)[C@H](O)[C@H](C)O1 [doxorubicin], the “cellular localization of doxorubicin” value ([1]; DU-145 cells treated with rHDL-Doxorubicin nanoparticles, FIG. 11A, FIG. 12) is reported as “released into the cell cytoplasm”.
For CC(=O)O[C@H]1C(=O)[C@@]2(C)[C@H]([C@H](OC(=O)c3ccccc3)[C@]3(O)C[C@H](OC(=O)[C@H](O)[C@@H](NC(=O)c4ccccc4)c4ccccc4)C(C)=C1C3(C)C)[C@]1(OC(C)=O)CO[C@@H]1C[C@@H]2O [paclitaxel], the “uptake by cancer cells” value [2] is given as “taken up by cancer cells”.
In the case of “Alexa 647-conjugated Apo A-I: Apo A-I labeled with Alexa Fluor 647 fluorescent dye”, the “cellular localization of labeled Apo A-I” value ([1]; DU-145 cells treated with rHDL-Doxorubicin nanoparticles prepared with labeled Apo A-I, FIG. 11B) is reported as “only localized in the membrane of the cell and does not enter the cell”.
